Assay results reported in patent US20190350907A1, “METHODS AND PHARMACEUTICAL COMPOSITIONS FOR REDUCING CD95- MEDIATED CELL MOTILITY” (INSERM (INSTITUT NATIONAL DE LA SANTÉ ET DE LA RECHERCHE …, priority 2017, published 2019).
“Also recorded” adds a separate entry of the source.

Key:
[1] = system: CD95-mediated Ca2+ signaling pathway in Th17 cells; test: CD95-mediated Ca2+ response in Th17 cells; format: cell-based, human; settings: non-toxic concentrations (1 μM), 1 h pre-treatment, cl-CD95L 100 ng/mL, FuraPE3-AM
Method: A. Activated PBLs were loaded with FuraPE3-AM (1 μM) and pre-treated for 1 h with non-toxic concentrations of indicated compounds. T-cells were then stimulated with thapsigargin (1 μM; arrow). Ratio values (R) were normalized to pre-stimulated values (R0) to yield R/R0 values. Data represent means±the SD. B. Th17 cells were sorted from healthy donors and loaded with FuraPE3-AM (1 μM). Th17 cells were pre-treated for 1 h with non-toxic concentrations of ritonavir or diflunisal (1 μM). T-cells were then stimulated with cl-CD95L (100 ng/mL; arrow). Ratio values (R) were normalized to pre-stimulated values (R0) to yield R/R0 values. Data represent means±the SD.
Human PBLs were sorted using flow cytometry cell sorting to isolate Th17 (A) according to their phenotype (CD3+CD4+CXCR5−CCR6+CXCR3−CD45RA−) and Tfh (B) (CD4+CXCR5+ICOS+PD−1+CD45RA−). Cells were pre-incubated with Indicated drugs (1 μM) for 1 h and then stimulated with 100 ng/mL of s-CD95L. [Ca2+]CYT was assessed in Fluo2 LR-AM (3 μM)-loaded cells. Data represent means±the SD of 3 independent experiments.
Peripheral blood mononuclear cells (PBMC) were isolated from buffy-coat by density gradient using lymphocyte separation medium (Eurobio, Les Ulis, France). PBMCs were then subjected to selection using a cocktail of antibody-coated magnetic beads: CCR6^+ CXCR3^−CD4^+ cells (Th17 cells) were sorted with Human Th17 Enrichment kit (STEMCELL Technologies, Grenoble, France). Cell sorting efficiency was evaluated by FACS.
T-cells were loaded with Fura-PE3-AM (1 μM) at room temperature for 30 min in Hank's Balanced Salt Solution (HBSS). After washing, the cells were incubated for 15 min in the absence of Fura-PE3-AM to complete de-esterification of the dye. Cells were placed in a temperature controlled chamber (37° C.) of an inverted epifluorescence microscope (Olympus IX70) equipped with an x40 UApo/340-1.15 W water-immersion objective (Olympus), and fluorescence micrograph images were captured at 510 nm and 12-bit resolution by a fast-scan camera (CoolSNAP fx Monochrome, Photometrics). To minimize UV light exposure, a 4×4 binning function was used. Fura-PE3 was alternately excited at 340 and 380 nm, and the ratios of the resulting images (emission filter at 520 nm) were produced at constant intervals (10 seconds). The Fura-PE3 ratio (Fratio 340/380) images were analyzed offline with Universal Imaging software, including Metafluor and Metamorph. Fratio reflects the intracellular Ca^2+ concentration changes. Each experiment was repeated at least 3 times, and the average of more than 20 single-cell traces per experiment was analyzed.

CD95/PLCγ1 interaction = target: T1, CD95/PLCγ1 interaction (Homo sapiens, UniProt P19174); test: Renilla luciferase protein-fragment complementation assay (PCA), CD95-CID/PLCγ1-SH3; format: cell-based; settings: result in words
T1 construct: The PLCγ1-SH3 domain (aa 790-851) (C); expressed in transfected cells; host or cells: HEK293T
T1 sequence (P19174 790-851): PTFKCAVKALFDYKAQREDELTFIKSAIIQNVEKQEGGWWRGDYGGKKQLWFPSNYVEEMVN
Method: FIG. 1. […] A. Schematic representation of the protein-fragment complementation assay used with CD95-CID or -DD fused to F2 and PLCγ1-SH3 or FADD-DD fused to F1 to identify inhibitors from the Prestwick library. The Renilla luciferase enzyme was divided into amino-terminal and carboxy-terminal fragments (yellow domains) and fused to the indicated domains. B. Compounds from the Prestwick library were tested against CD95/PLCγ1 or CD95/FADD PCA. […] Inhibition of CD95/FADD interaction is also assessed.
Light emission indicates refolding of the luciferase and reconstitution of enzyme activity through protein/protein interactions. […] Data represent means±SD of three independent experiments. […] Then, the indicated peptides fused with or without the cell-penetrating domain TAT were incubated at the indicated concentrations for 4 hrs and luminescence was assessed. Data represent means±SD of three independent experiments. […].
HEK293T cells were electroporated with 5 μg of DNA using BTM-830 electroporation generator (BTX Instrument Division, Harvard Apparatus) with 10 μg of DNA. Transfected cells were cultured for 24 hrs prior to protein complementation assay analyses as previously described (17). Briefly, transfected cells (10^6) were washed, resuspended in 100 μl PBS and deposited in OptiPlate-96 (PerkinElmer, Waltham, Mass., USA). Coelenterazine-h (5 μM, Sigma) was injected to each well and renilla luciferase activity was monitored for the first 10 seconds using Infinite200Pro (Tecan, Männedorf, Switzerland).
A peptide consisting of the cell-penetrating domain of TAT fused to CID (TAT-CID) binds the SH3 domain of PLCγ1 and thereby, prevents PLCγ1/CD95 interaction and the subsequent induction of the Ca^2+ response (16). […] Briefly, the Renilla luciferase enzyme was divided into two fragments (F1 and F2 fragments). […] Interaction of CD95 with PLCγ1 or FADD allows the reconstitution of RLuc and subsequent light emission (FIG. 1A). The chemical Prestwick library was screened against these PCAs (FIG. 1B). […] These molecules are designated CID inhibitors or CIDINH.

## CC(C)c1nc(CN(C)C(=O)N[C@H](C(=O)N[C@@H](Cc2ccccc2)C[C@H](O)[C@H](Cc2ccccc2)NC(=O)OCc2cncs2)C(C)C)cs1 [ritonavir, 1,3-thiazol-5-ylmethyl N-[(2S,3S,5S)-3-hydroxy-5-[[(2S)-3-methyl-2-[[methyl-[(2-propan-2-yl-1,3-thiazol-4-yl)methyl]carbamoyl]amino]butanoyl]amino]-1,6-diphenylhexan-2-yl]carbamate]
[1]
  effect on CD95-mediated Ca2+ signaling in Th17 cells: abrogated
CD95/PLCγ1 interaction
  effect on interaction of CD95 with PLCγ1: efficiently prevented; also recorded: prevents the PLCγ1 recruitment

## O=C(O)c1cc(-c2ccc(F)cc2F)ccc1O [diflunisal, 5-(2,4-difluorophenyl)-2-hydroxybenzoic acid]
[1]
  effect on CD95-mediated Ca2+ signaling in Th17 cells: abrogated
CD95/PLCγ1 interaction
  effect on interaction of CD95 with PLCγ1: efficiently prevented
